Data taken from patent US10703733B2, “MCL-1 inhibitors” (Gilead Sciences, Inc., priority 2018, dated 2020).
Read-outs that look alike come from different tables or passages of the source.

Columns and labels:
[1] = target: MCL-1/Bim interaction (recombinant human MCL-1 protein, residues 171-327; biotinylated human Bim peptide, residues 51-76) (Homo sapiens (Human), UniProt Q07820); assay: MCL-1/Bim Binding AlphaLISA Assay; details: 0.0625 nM 6xHis-Mcl-1 (171-327), 0.0625 nM biotinylated-Bim peptide
Sequence of MCL-1/Bim interaction (recombinant human MCL-1 protein, residues 171-327; biotinylated human Bim peptide, residues 51-76) (Q07820 171-327): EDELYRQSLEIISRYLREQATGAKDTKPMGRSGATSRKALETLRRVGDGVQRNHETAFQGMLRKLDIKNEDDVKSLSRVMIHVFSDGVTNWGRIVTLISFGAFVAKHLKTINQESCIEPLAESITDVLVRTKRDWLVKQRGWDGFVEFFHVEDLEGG
Summary of the method: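 Protein 0.0625 nM + cpd, 1 h; add biotin-Bim 0.0625 nM, 2 h; acceptor beads 1 h; donor beads 1 h; AlphaScreen read. Buffer 20 mM Hepes pH 7.5, 150 mM NaCl, 1 mM DTT.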

[2] = system: SKBR3 cells; assay: SKBR3 Cell Viability Assay (CellTiter Glo); assay type: cell-based; details: CellTiter Glo luminescence, read-out: MCL-1 CV SKBR3 EC50
Summary of the method: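 Viability read as CellTiter Glo luminescence after 72 h of compound exposure at 37° C./5% CO2, using 6,000 SKBR3 cells per well in McCoy 5A with 10% FBS. Percent inhibition scaled between DMSO wells and 10 μM puromycin wells.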

CO[C@H]1/C=C/CCC[S@@](=O)(NC(=O)CCc2cccnc2)=NC(=O)c2ccc3c(c2)N(C[C@@H]2CC[C@H]21)C[C@@]1(CCCc2cc(Cl)ccc21)CO3 [Example 40]
IC50 [1]: 0.1 nM | EC50 ([2]; Homo sapiens, SK-BR-3, 72 h): 328 nM

CO[C@H]1/C=C/C[C@H](C)C[S@@](=O)(NC(=O)N[C@H]2CCOC2)=NC(=O)c2ccc3c(c2)N(C[C@@H]2CC[C@H]21)C[C@@]1(CCCc2cc(Cl)ccc21)CO3 [Example 112]
IC50 [1]: 0.047 nM | EC50 ([2]; Homo sapiens, SK-BR-3, 72 h): 73.2 nM

COc1nn(C)cc1C(=O)N[S@@]1(=O)=NC(=O)c2ccc3c(c2)N(C[C@@H]2CC[C@H]2[C@@H](OC)CC[C@H](OC)[C@H](C)C1)C[C@@]1(CCCc2cc(Cl)ccc21)CO3 [Example 299]
IC50 [1]: 0.039 nM | EC50 ([2]; Homo sapiens, SK-BR-3, 72 h): 59.7 nM

CCn1ncc(C(=O)N[S@@]2(=O)=NC(=O)c3ccc4c(c3)N(C[C@@H]3CC[C@H]3[C@@H](OC)/C=C/C[C@H](C)C2)C[C@@]2(CCCc3cc(Cl)ccc32)CO4)n1 [Example 422]
IC50 [1]: 0.035 nM | EC50 ([2]; Homo sapiens, SK-BR-3, 72 h): 187 nM

COC[C@@H]1Cn2cc(C(=O)N[S@@]3(=O)=NC(=O)c4ccc5c(c4)N(C[C@@H]4CC[C@H]4[C@@H](O)/C=C/C[C@H](C)[C@H]3C)C[C@@]3(CCCc4cc(Cl)ccc43)CO5)cc2CO1 [Example 345]
IC50 [1]: 0.037 nM | EC50 ([2]; Homo sapiens, SK-BR-3, 72 h): 22.6 nM

CC#CC(=O)N[S@@]1(=O)=NC(=O)c2ccc3c(c2)N(C[C@@H]2CC[C@H]2[C@@H](OC)/C=C/CCC1)C[C@@]1(CCCc2cc(Cl)ccc21)CO3 [Example 33]
IC50 [1]: 2.9 nM | EC50 ([2]; Homo sapiens, SK-BR-3, 72 h): 7440 nM

CO[C@H]1/C=C/C[C@H](C)C[S@@](=O)(NC(=O)c2cc3n(c2)CC=C3)=NC(=O)c2ccc3c(c2)N(C[C@@H]2CC[C@H]21)C[C@@]1(CCCc2cc(Cl)ccc21)CO3 [Example 135]
IC50 [1]: 0.213 nM | EC50 ([2]; Homo sapiens, SK-BR-3, 72 h): 132 nM

CCn1ccc(C(=O)N[S@@]2(=O)=NC(=O)c3ccc4c(c3)N(C[C@@H]3CC[C@H]3[C@@H](OC)/C=C/C[C@H](C)C2)C[C@@]2(CCCc3cc(Cl)ccc32)CO4)c1 [Example 130]
IC50 [1]: 0.18 nM | EC50 ([2]; Homo sapiens, SK-BR-3, 72 h): 152 nM

COc1nn(C)cc1C(=O)N[S@@]1(=O)=NC(=O)c2ccc3c(c2)N(C[C@@H]2CC[C@H]2[C@@H](O)CCC[C@H](C)[C@H]1C)C[C@@]1(CCCc2cc(Cl)ccc21)CO3 [Example 290]
IC50 [1]: 0.03 nM | EC50 ([2]; Homo sapiens, SK-BR-3, 72 h): 26.4 nM

COCCCn1cc(C(=O)N[S@@]2(=O)=NC(=O)c3ccc4c(c3)N(C[C@@H]3CC[C@H]3[C@@H](OC)/C=C/C[C@H](C)C2)C[C@@]2(CCCc3cc(Cl)ccc32)CO4)cc1COC [Example 338]
IC50 [1]: 0.09 nM | EC50 ([2]; Homo sapiens, SK-BR-3, 72 h): 124 nM

CO[C@H]1CCN(C(=O)N[S@@]2(=O)=NC(=O)c3ccc4c(c3)N(C[C@@H]3CC[C@H]3[C@@H](OC)/C=C/C[C@H](C)C2)C[C@@]2(CCCc3cc(Cl)ccc32)CO4)C1 [Example 347]
IC50 [1]: 0.084 nM | EC50 ([2]; Homo sapiens, SK-BR-3, 72 h): 79.8 nM

COC1CN(C2CN(C(=O)N[S@@]3(=O)=NC(=O)c4ccc5c(c4)N(C[C@@H]4CC[C@H]4[C@@H](OC)/C=C/C[C@H](C)C3)C[C@@]3(CCCc4cc(Cl)ccc43)CO5)C2)C1 [Example 286]
IC50 [1]: 0.037 nM | EC50 ([2]; Homo sapiens, SK-BR-3, 72 h): 65.1 nM

CO[C@H]1/C=C/C[C@H](C)C[S@@](=O)(NC(=O)N2CC3(CCCO3)C2)=NC(=O)c2ccc3c(c2)N(C[C@@H]2CC[C@H]21)C[C@@]1(CCCc2cc(Cl)ccc21)CO3 [Example 231]
IC50 [1]: 0.051 nM | EC50 ([2]; Homo sapiens, SK-BR-3, 72 h): 40 nM

CO[C@H]1/C=C/C[C@H](C)C[S@@](=O)(NC(=O)N2CC(F)(F)C2)=NC(=O)c2ccc3c(c2)N(C[C@@H]2CC[C@H]21)C[C@@]1(CCCc2cc(Cl)ccc21)CO3 [Example 323]
IC50 [1]: 0.158 nM | EC50 ([2]; Homo sapiens, SK-BR-3, 72 h): 170 nM

COC1CCN(C2CN(C(=O)N[S@@]3(=O)=NC(=O)c4ccc5c(c4)N(C[C@@H]4CC[C@H]4[C@@H](OC)/C=C/C[C@H](C)C3)C[C@@]3(CCCc4cc(Cl)ccc43)CO5)C2)CC1 [Example 287]
IC50 [1]: 0.029 nM | EC50 ([2]; Homo sapiens, SK-BR-3, 72 h): 25 nM

CO[C@H]1/C=C/CCC[S@@](=O)(NC(=O)CCc2ncsc2C)=NC(=O)c2ccc3c(c2)N(C[C@@H]2CC[C@H]21)C[C@@]1(CCCc2cc(Cl)ccc21)CO3 [Example 101]
IC50 [1]: 1.4 nM | EC50 ([2]; Homo sapiens, SK-BR-3, 72 h): 2590 nM

COc1nn(C)cc1C(=O)N[S@@]1(=O)=NC(=O)c2ccc3c(c2)N(C[C@@H]2CC[C@H]2[C@@H](OC)/C=C/[C@H](S(=O)(=O)c2ccc(C)cc2)[C@H](C)C1)C[C@@]1(CCCc2cc(Cl)ccc21)CO3 [Example 377]
IC50 [1]: 0.106 nM | EC50 ([2]; 72 hours): 34 nM

CO[C@H]1/C=C/C[C@H](C)C[S@@](=O)(NC(=O)N[C@@H]2C[C@H]2C)=NC(=O)c2ccc3c(c2)N(C[C@@H]2CC[C@H]21)C[C@@]1(CCCc2cc(Cl)ccc21)CO3 [Example 433]
IC50 [1]: 0.133 nM | EC50 ([2]; Homo sapiens, SK-BR-3, 72 h): 395 nM

COc1nn(C)cc1C(=O)N[S@@]1(=O)=NC(=O)c2ccc3c(c2)N(C[C@@H]2CC[C@H]2[C@@H](OC)/C=C/[C@H](OCC(=O)N(C)C)[C@H](C)C1)C[C@@]1(CCCc2cc(Cl)ccc21)CO3 [Example 401]
IC50 [1]: 0.044 nM | EC50 ([2]; Homo sapiens, SK-BR-3, 72 h): 118 nM

CO[C@H]1/C=C/C[C@H](C)C[S@@](=O)(NC(=O)c2cc(C)n(C)c2)=NC(=O)c2ccc3c(c2)N(C[C@@H]2CC[C@H]21)C[C@@]1(CCCc2cc(Cl)ccc21)CO3 [Example 413]
IC50 [1]: 0.478 nM | EC50 ([2]; Homo sapiens, SK-BR-3, 72 h): 130 nM

COC[C@@H]1Cn2cc(C(=O)N[S@@]3(=O)=NC(=O)c4ccc5c(c4)N(C[C@@H]4CC[C@H]4[C@@H](OC)/C=C/C[C@H](C)C3)C[C@@]3(CCCc4cc(Cl)ccc43)CO5)cc2CO1 [Example 306]
IC50 [1]: 0.057 nM | EC50 ([2]; Homo sapiens, SK-BR-3, 72 h): 43.6 nM

CO[C@H]1/C=C/C[C@H](C)C[S@@](=O)(NC(=O)c2cc3n(c2F)CCCC3)=NC(=O)c2ccc3c(c2)N(C[C@@H]2CC[C@H]21)C[C@@]1(CCCc2cc(Cl)ccc21)CO3 [Example 174]
IC50 [1]: 0.153 nM | EC50 ([2]; 72 hours): 103 nM

CO[C@H]1/C=C/C[C@H](C)C[S@@](=O)(NC(=O)N2C[C@@H](OC)[C@@H]2C)=NC(=O)c2ccc3c(c2)N(C[C@@H]2CC[C@H]21)C[C@@]1(CCCc2cc(Cl)ccc21)CO3 [Example 253]
IC50 [1]: 0.037 nM | EC50 ([2]; Homo sapiens, SK-BR-3, 72 h): 39.2 nM

CO[C@H]1/C=C/C[C@H](C)C[S@@](=O)(NC(=O)c2cc(CN3CCN(C(C)C)[C@H](C)C3)n(C)c2)=NC(=O)c2ccc3c(c2)N(C[C@@H]2CC[C@H]21)C[C@@]1(CCCc2cc(Cl)ccc21)CO3 [Example 284]
IC50 [1]: 0.061 nM | EC50 ([2]; Homo sapiens, SK-BR-3, 72 h): 54.7 nM

COc1nn(C)cc1C(=O)N[S@@]1(=O)=NC(=O)c2ccc3c(c2)N(C[C@@H]2CC[C@H]2[C@@H](OC)/C=C/[C@H](OCCN2CCOCC2)[C@H](C)C1)C[C@@]1(CCCc2cc(Cl)ccc21)CO3 [Example 295]
IC50 [1]: 0.04 nM | EC50 ([2]; Homo sapiens, SK-BR-3, 72 h): 22 nM

CCO[C@H]1/C=C/C[C@H](C)C[S@@](=O)(NC(=O)c2cn(C)nc2OC)=NC(=O)c2ccc3c(c2)N(C[C@@H]2CC[C@H]21)C[C@@]1(CCCc2cc(Cl)ccc21)CO3 [Example 367]
IC50 [1]: 0.063 nM | EC50 ([2]; Homo sapiens, SK-BR-3, 72 h): 101 nM

CO[C@H]1/C=C/CCC[S@@](=O)(NC(=O)CCc2nnc(C)s2)=NC(=O)c2ccc3c(c2)N(C[C@@H]2CC[C@H]21)C[C@@]1(CCCc2cc(Cl)ccc21)CO3 [Example 102]
IC50 [1]: 0.3 nM | EC50 ([2]; Homo sapiens, SK-BR-3, 72 h): 891 nM

CO[C@H]1/C=C/CCC[S@@](=O)(NC(=O)CCc2c(C)cnn2C)=NC(=O)c2ccc3c(c2)N(C[C@@H]2CC[C@H]21)C[C@@]1(CCCc2cc(Cl)ccc21)CO3 [Example 103]
IC50 [1]: 1 nM | EC50 ([2]; Homo sapiens, SK-BR-3, 72 h): 10000 nM

CO[C@H]1/C=C/C[C@H](C)[C@@H](C)[S@@](=O)(NC(=O)[C@H]2C[C@@](C)(O)C2)=NC(=O)c2ccc3c(c2)N(C[C@@H]2CC[C@H]21)C[C@@]1(CCCc2cc(Cl)ccc21)CO3 [Example 166]
IC50 [1]: 0.067 nM | EC50 ([2]; Homo sapiens, SK-BR-3, 72 h): 79.8 nM

COc1ccc(C(=O)N[S@@]2(=O)=NC(=O)c3ccc4c(c3)N(C[C@@H]3CC[C@H]3[C@@H](OC)/C=C/C[C@H](C)C2)C[C@@]2(CCCc3cc(Cl)ccc32)CO4)cc1 [Example 269]
IC50 [1]: 0.081 nM | EC50 ([2]; Homo sapiens, SK-BR-3, 72 h): 264 nM

CC[C@H]1C/C=C/[C@H](OC)[C@@H]2CC[C@H]2CN2C[C@@]3(CCCc4cc(Cl)ccc43)COc3ccc(cc32)C(=O)N=[S@](=O)(NC(=O)c2cc3n(c2)CCOC3)C1 [Example 202]
IC50 [1]: 0.082 nM | EC50 ([2]; Homo sapiens, SK-BR-3, 72 h): 91 nM

COC1CCn2cc(C(=O)N[S@@]3(=O)=NC(=O)c4ccc5c(c4)N(C[C@@H]4CC[C@H]4[C@@H](OC)/C=C/C[C@H](C)C3)C[C@@]3(CCCc4cc(Cl)ccc43)CO5)nc2C1 (stereo partly drawn) [Example 302]
IC50 [1]: 0.091 nM | EC50 ([2]; Homo sapiens, SK-BR-3, 72 h): 302 nM

CO[C@H]1/C=C/C[C@H](C)C[S@@](=O)(NC(=O)N2CCN(CC#N)CC2)=NC(=O)c2ccc3c(c2)N(C[C@@H]2CC[C@H]21)C[C@@]1(CCCc2cc(Cl)ccc21)CO3 [Example 270]
IC50 [1]: 0.041 nM | EC50 ([2]; Homo sapiens, SK-BR-3, 72 h): 61.7 nM
